Results from ChEMBL document CHEMBL4342418, “1,2,3-Triazole-containing hybrids as potential anticancer agents: Current developments, action mechanisms and structure-activity relationships” (Eur J Med Chem, 2019).
pIC50: −log10 of the molar value.

What was measured:
DU-145 = experiment: Antiproliferative activity against human DU145 cells by SRB assay; format: functional, cell-based
HeLa [1] = experiment: Antiproliferative activity against human HeLa cells by SRB assay; format: functional, cell-based
HepG2 = experiment: Antiproliferative activity against human HepG2 cells by SRB assay; format: functional, cell-based
A549 [2] = experiment: Antiproliferative activity against human A549 cells by SRB assay; format: functional, cell-based
SK-OV-3 = experiment: Antiproliferative activity against human SKOV3 cells by SRB assay; format: functional, cell-based
MCF7 [3] = experiment: Antiproliferative activity against human MCF7 cells by SRB assay; format: functional, cell-based
MCF7-DOX = experiment: Antiproliferative activity against human MCF7/Dox cells by SRB assay; format: functional, cell-based
MCF7 [4] = experiment: Antiproliferative activity against human MCF7 cells assessed as reduction in cell viability after 72 hrs by MTT assay; format: functional, cell-based; conditions: MCF7, 72 h
HT-29 [5] = experiment: Antiproliferative activity against human HT-29 cells assessed as reduction in cell viability after 72 hrs by MTT assay; format: functional, cell-based; conditions: HT-29, 72 h
MOLT-4 = experiment: Antiproliferative activity against human MOLT4 cells assessed as reduction in cell viability after 72 hrs by MTT assay; format: functional, cell-based; conditions: MOLT-4, 72 h
MDA-MB-231 = experiment: Antiproliferative activity against human MDA-MB-231 cells by MTT assay; format: functional, cell-based
HEK293 = experiment: Cytotoxicity against HEK293 cells by MTT assay; format: cell-based; conditions: Homo sapiens
A549 [6] = experiment: Antiproliferative activity against human A549 cells assessed as reduction in cell viability after 48 hrs by SRB assay; format: functional, cell-based; conditions: A549, 48 h
HCT-116 = experiment: Antiproliferative activity against human HCT116 cells assessed as reduction in cell viability after 48 hrs by SRB assay; format: functional, cell-based; conditions: HCT-116, 48 h
MCF7 [7] = experiment: Antiproliferative activity against human MCF7 cells assessed as reduction in cell viability after 48 hrs by SRB assay; format: functional, cell-based; conditions: MCF7, 48 h
HT-29 [8] = experiment: Antiproliferative activity against human HT-29 cells assessed as reduction in cell viability after 48 hrs by SRB assay; format: functional, cell-based; conditions: HT-29, 48 h
MCF7 [9] = experiment: Potency index, ratio of Sorafenib IC50 to test compound IC50 for antiproliferative activity against human MCF7 cells; format: functional
HT-29 [10] = experiment: Potency index, ratio of Sorafenib IC50 to test compound IC50 for antiproliferative activity against human HT-29 cells; format: functional
A549 [11] = experiment: cells; format: functional, cell-based; conditions: Homo sapiens
Description: Antiproliferative activity against human A549 cells by MTT assay

HBL-100 = experiment: Antiproliferative activity against human HBL100 cells by MTT assay; format: functional, cell-based
HeLa [12] = experiment: Antiproliferative activity against human HeLa cells by MTT assay; format: functional, cell-based
SW1573 = experiment: Antiproliferative activity against human SW1573 cells by MTT assay; format: functional, cell-based
T47D = experiment: Antiproliferative activity against human T47D cells by MTT assay; format: functional, cell-based
WiDr = experiment: Antiproliferative activity against human WiDr cells by MTT assay; format: functional, cell-based
hTERT-BJ = experiment: Cytotoxicity activity against human hTERT-BJ cells by MTT assay; format: cell-based

## Cc1ccc2c(c1)/C(=N/O)C(=O)N2CCOCCn1cc(COc2ccc3c(C)cc(=O)oc3c2)nn1
DU-145
  pIC50: 4.50 to 4.81
HeLa [1]
  pIC50: 4.50 to 4.81
HepG2
  pIC50: 4.50 to 4.81
A549 [2]
  pIC50: 4.50 to 4.81
SK-OV-3
  pIC50: 4.50 to 4.81
MCF7 [3]
  pIC50: 4.50 to 4.81
MCF7-DOX
  pIC50: 4.50 to 4.81

## CC(C)(C)c1ccc(Cn2cc(CNC3=CC(=O)c4ccccc4C3=O)nn2)cc1
MCF7 [4]
  pIC50: 4.50 to 5.17
HT-29 [5]
  pIC50: 4.50 to 5.17
MOLT-4
  pIC50: 4.50 to 5.17

## COC(=O)c1ccc(-n2nc(N)c(C(=O)NCCNC(=O)c3nn(-c4ccc(C(=O)OC)cc4)nc3N)n2)cc1
MDA-MB-231
  pIC50: 4.92
HEK293
  pIC50: < 4.30

## O=C(/C=C/c1cn(-c2ccccc2)nc1-c1ccccc1)OCc1cn(-c2ccc([N+](=O)[O-])cc2)nn1
A549 [6]
  pIC50: 5.02 to 5.75
HCT-116
  pIC50: 5.02 to 5.75
MCF7 [7]
  pIC50: 5.02 to 5.75
HT-29 [8]
  pIC50: 5.02 to 5.75

## CNC(=O)c1cc(Oc2ccc(-n3cc(-c4ccccc4F)nn3)cc2)ccn1
MCF7 [4]
  pIC50: 6.08 to 6.70
MCF7 [9]
  Ratio IC50: 6.2 - 131.2
HT-29 [10]
  Ratio IC50: 6.2 - 131.2
HT-29 [5]
  pIC50: 6.08 to 6.70

## C=CCC1CC(Cc2cn([C@@H](Cc3ccccc3)c3nc(C(=O)OC)co3)nn2)CC(O[Si](C)(C)C(C)(C)C)C1 (some centres not stated)
A549 [11]
  pIC50: 5.18 to 5.51
HBL-100
  pIC50: 5.18 to 5.51
HeLa [12]
  pIC50: 5.18 to 5.51
SW1573
  pIC50: 5.18 to 5.51
T47D
  pIC50: 5.18 to 5.51
WiDr
  pIC50: 5.18 to 5.51
hTERT-BJ
  pIC50: 4.28
